Source: patent publication US20050175550A1, “Compositions for oral use” (priority 2000, published 2005)

How the values were obtained:
Assay type in all cases: cell-based
[1] = system: Actinobacillus actinomycetemcomitans Y4; experiment: Antibacterial test, propagation by turbidity in broth (Example 1); details: medium containing 0.1 mM or 1.0 mM trifluoromethionine, FIG. 5
[2] = system: S. sanguis ST160; experiment: Minimum growth-inhibiting concentration on agar media (Example 2); details: Brain Heart Infusion, 5% CO2
Description: (§1) 3 ml of GAM broth (Nissui Medical) containing 5 μg/ml of hemin and 1 μg/ml of menadione was separately inoculated with one platinum loop each of subcultures of causative bacteria of periodontal disease, strains Porphyromonas gingivalis W83, W50, ATCC49417 and ATCC33277, strain Actinobacillus actinomycetemcomitans Y4, and strains Fusobacterium nucleatum ATCC10953 and ATCC25586, followed by incubation at 37° C. under anaerobic conditions (10% CO2, 10% H2 and 80% N2) overnight. Then, the resulting cultures were diluted to 10^−8, 10^−6, 10^−4 and 10^−3 to make inoculating bacterial solutions, respectively.
(§2) Agar media containing 400, 200, 100, 50, 25, 10 and 5 μg/ml of TFM, respectively, were prepared and streaked, about 2 cm long, with a platinum loop each of the above-prepared inoculating bacterial solutions, followed by incubation under the same anaerobic conditions as above at 37° C. for 48-72 hours to evaluate growth of the bacteria.
Streptococcus sobrinus MT8246, Streptococcus sanuis ST160, Streptococcus mutans Xc and Streptococcus salivarius HHT were likewise incubated in Brain Heart Infusion (Difco) in the same manner as above except that the incubation was conducted in the presence of 5% CO2 to evaluate the growth.

[3] = system: Fusobacterium nucleatum ATCC10953; experiment: as above; details: F. nucleatuium ATCC 10953, anaerobic, 37° C., 48-72 hours
Description: as §1, §2

[4] = system: Porphyromonas gingivalis ATCC33277; experiment: as above; details: P. gingivalis ATCC 33277, anaerobic, 37° C., 48-72 hours
Description: as §1, §2

[5] = system: Actinobacillus actinomycetemcomitans Y4; experiment: as above; details: A. actinomycetemcomitans Y4, anaerobic, 37° C., 48-72 hours
Description: as §1, §2

[6] = system: Porphyromonas gingivalis W83; experiment: as above; details: P. gingivalis W83, anaerobic, 37° C., 48-72 hours
Description: as §1, §2

[7] = system: Fusobacterium nucleatum ATCC25586; experiment: as above; details: F. nucleatuium ATCC 25586, anaerobic, 37° C., 48-72 hours
Description: as §1, §2

[8] = system: Porphyromonas gingivalis W50; experiment: as above; details: P. gingivalis W50, anaerobic, 37° C., 48-72 hours
Description: as §1, §2

[9] = system: Porphyromonas gingivalis ATCC49417; experiment: as above; details: P. gingivalis ATCC 49417, anaerobic, 37° C., 48-72 hours
Description: as §1, §2

[10] = system: Staphylococcus epidermidis ATCC29886; experiment: MIC by agar plate dilution method on standard strains (Example 3)
Description: (§3) Minimum growth-inhibiting concentrations of trifluoromethionine and other antibacterial drugs on standard strains were determined by an agar plate dilution method according to the standard method of Japanese Society of Chemotherapy.
(§4) Drug solutions at a concentration 10 times as high as the maximum applicable concentration were prepared as original solutions of test drugs given in Table 2 (as to solvents used for this purpose, reference should be made also to Table 2). Serial two-fold dilution series of the original solutions were prepared at desired stages, and 1 ml each of the diluted drug solutions was added to 9 ml of media given in Table 3 to prepare drug plates. Concentration range of the individual drugs used are as follows: trifluoromethionine: 400-0.025 μg/ml (15 stages), tetracycline: 100-0.025 μg/ml (13 stages), and clarithromycin: 100-0.025 μg/ml (13 stages).
(§5) • 1) Bacterial solutions stocked at −80° C. were inoculated on agar media (as to media used, reference should be made to Table 3), and then incubated at 37° C. overnight. When desired, subculturing was conducted once more on the same agar media (by overnight incubation at 37° C.). • 2) Colonies growing on the agar media were sampled by a platinum loop, suspended in liquid media (reference should be made to Table 3) and statically incubated at 37° C. for 18 hours (preculturing). • 3) Preculturing was continued up to McFarland 0.5 (McFarland 0.5=about 10^8 CFU/ml), and then the culture broths were diluted with Muellar Hinton Broth to make 10^6 CFU/ml. 5 μl each of the diluted solutions were inoculated on the above-mentioned drug plates by an inoculator Microplanter.
(§6) Thus, bacterial solutions at about 10^8 CFU/ml can be easily prepared by use of McFarland 0.5. Bacterial solutions at such a turbidity are commercially available, but can be easily prepared. McFarland 0.5 can be obtained by adding 0.5 ml of an aqueous 0.048 mol/l barium chloride solution to 99.5 ml of 1% v/v (0.18 mol/l) sulfuric acid. • 4) The individual bacteria were incubated at 37° C. for 18-20 hours and then the growth was determined in the same manner as in Example 2 to obtain minimum growth-inhibiting concentrations.

[11] = system: Staphylococcus epidermidis ATCC12228; experiment: as above
Description: as §3, §4, §5, §6

[12] = system: Porphyromonas gingivalis W83, ATCC33277 and M1217; experiment: Antibacterial test, propagation by turbidity in broth (Example 1); details: medium containing 0.1 mM or 1.0 mM trifluoromethionine, FIGS. 1-3
Description: (§7) 3 ml of GAM broth (Nissui Medical) containing 5 μg/ml of hemin and 1 μg/ml of menadione was separately incubated with one platinum loop each of subcultures of strains Porphyromonas gingivalis W83, ATCC33277 and M1217, and strain Fusobacterium nucleatum ATCC10953, followed by incubation at 37° C. under anaerobic conditions (10% CO2, 10% H2, 80% N2) overnight. The same fresh medium as above was inoculated with the resulting culture in such an amount that an absorbance at 550 nm of the inoculated medium could be about 0.15, followed by incubation under the same condition as above. Furthermore, the above-mentioned strains were incubated in the above-mentioned medium further containing 0.1 mM or 1.0 mM trifluoromethionine. Absorbance at 550 nm of the individual cultures was measured with time to evaluate propagation of bacteria through the turbidity of the medium. Results are shown in FIG. 1 to 4 (A to D), where the results of using the trifluoromethionine-free medium are shown by □ curve, and those of using media containing 0.1 mM and 1.0 mM trifluoromethionine, respectively, are shown by ▪ and ● curves.

[13] = system: Fusobacterium nucleatum ATCC10953; experiment: as above; details: medium containing 0.1 mM or 1.0 mM trifluoromethionine, FIG. 4
Description: as §7

[14] = system: Escherichia coli BL 21; experiment: as above; details: medium containing 0.1 mM or 1.0 mM trifluoromethionine, FIG. 6

For `N[C@@H](CCSC(F)(F)F)C(=O)O` [TFM, Trifluoromethionine], the “antibacterial effect (propagation of bacteria, absorbance at 550 nm)” value (“antibacterial effect” below) [1] was “remarkable antibacterial effects”, the Minimum growth-inhibiting concentration [2] was >400 µg/mL and the Minimum growth-inhibiting concentration [3] was 25 µg/mL. For the same compound, the Minimum growth-inhibiting concentration [4] was 5 µg/mL, the Minimum growth-inhibiting concentration [5] was 10 µg/mL and the Minimum growth-inhibiting concentration [6] was 5 µg/mL. The Minimum growth-inhibiting concentration [7] was 25 µg/mL, the Minimum growth-inhibiting concentration [8] was 5 µg/mL and the Minimum growth-inhibiting concentration [9] was 5 µg/mL. For the same compound, the MIC [10] was >400 µg/mL, the MIC [11] was >400 µg/mL and the “antibacterial effect” value [12] was “remarkable antibacterial effects”. For the same compound, the “antibacterial effect” value [13] was “remarkable antibacterial effects” and the “antibacterial effect” value [14] was “failed to show a significant antibacterial effect”.
